Patent US20090253720A1, “ANTIFOLATE COMPOSITIONS” (Chelsea Therapeutics, Inc., priority 2008, published 2009)
Values joined by “and” are separate entries in the source; they are usually repeats but may differ in a detail not shown here. Equal entries are not always repeated.

Assays:
[1] = Pharmacokinetics of a single oral dose in a healthy subject; conditions: human, in vivo
Description: The pharmacokinetic parameters of a single oral dose of the antifolate compound according to the invention were evaluated. In Comparative Examples 2-7, 1 to 20 mg of an antifolate compound according to Formula (9) was administered in the racemic free acid form (i.e., not as part of a pharmaceutical formulation). The drug product was supplied as powder-filled gelatin capsules in three active strengths (1.0 mg, 2.5 mg. and 5.0 mg) with each capsule including enough microcrystalline cellulose to bring the total capsule weight to 288 mg. […] In Examples 2-8, the test material was administered to a healthy subject, and blood samples were taken before dosing and at 0.5, 1, 1.5, 2, 2.5, 3, 3.5, 4, 5, 6, 8, 10, 12, 16, 24, and 48 hours after dosing. The calculated pharmacokinetic values observed are provided below in Table 3.
In Table 3, Cmax is the maximum measured plasma concentration of the antifolate compound administered and tmax is the time to Cmax. […] Thus, the pharmaceutical formulations of the present invention allow for greatly reducing the amount of antifolate compound that is administered to a subject while actually increasing the amount of the compound that is available for therapeutic action.

[2] = Comparative dissolution with cyclodextrin formulation (FIG. 4); format: physicochemical; conditions: 45 minutes
Source text: Compositions according to the invention using cyclodextrins have also shown similarly beneficial results. The improved solubility of the inventive compositions comprising an antifolate compound and a cyclodextrin is illustrated in FIG. 4, wherein the comparative dissolution of an antifolate compound is again given as a percent dissolution as a function of time. The antifolate compound was again tested in the diacid form (denoted as “Free acid”), in the sodium salt form (denoted as “Disodium salt”), and as the sodium salt form in a pharmaceutical composition according to the invention including a cyclodextrin (denoted as “Cyclodextrin formulation”). […] The inventive formulation approached 100% dissolution within 30 minutes. After 45 minutes, the salt alone and the diacid alone achieved only about 70% dissolution and about 45% dissolution, respectively.

[3] = Description: A salt screen of this compound was conducted with various pharmaceutically acceptable counterions to analyze aqueous solubility of the formed salts. Formed solids suspected of forming salts were analyzed by X-ray powder diffraction (XRPD).
[4] = molecular target: T1, reduced folate carrier (RFC) (Homo sapiens, UniProt P41440); assay: [3H]MTX transport inhibition in intact CCRF-CEM human T-cell leukemia cells; format: cell-based; conditions: 2 μM [3H]MTX, 37°, 5 min uptake
T1 construct: endogenous in cells; host or cells: CCRF-CEM human T-cell leukemia cells
T1 sequence (P41440 1-591): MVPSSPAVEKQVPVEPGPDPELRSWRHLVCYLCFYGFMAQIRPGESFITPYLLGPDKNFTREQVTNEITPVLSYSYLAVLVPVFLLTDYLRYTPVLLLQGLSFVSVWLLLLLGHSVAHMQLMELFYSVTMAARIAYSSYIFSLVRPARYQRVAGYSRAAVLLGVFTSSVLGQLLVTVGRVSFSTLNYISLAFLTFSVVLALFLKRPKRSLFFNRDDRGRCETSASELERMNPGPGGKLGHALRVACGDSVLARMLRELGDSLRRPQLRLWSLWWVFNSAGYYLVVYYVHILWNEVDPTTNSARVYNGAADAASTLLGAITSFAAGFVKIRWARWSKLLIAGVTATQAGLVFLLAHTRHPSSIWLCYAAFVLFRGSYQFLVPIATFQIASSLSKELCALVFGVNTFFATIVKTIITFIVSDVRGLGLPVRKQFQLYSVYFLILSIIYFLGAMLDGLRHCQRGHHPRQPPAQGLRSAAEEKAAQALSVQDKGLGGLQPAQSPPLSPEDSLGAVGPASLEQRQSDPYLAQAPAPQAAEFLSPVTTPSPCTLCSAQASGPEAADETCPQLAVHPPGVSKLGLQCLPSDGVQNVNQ
Description: Transport of 2 μM [^3H]MTX (methotrexate) at 37° by intact CCRF-CEM human T-cell leukemia was assayed by a micro-method utilizing repeated iced saline washes to remove extracellular drug. Such method is disclosed in McGuire J J, et al., Cancer Res 1989; 49:4517-25 and McGuire J J, et al., Cancer Res 2006; 66:3836-44, both of which are incorporated herein by reference in their entirety. The washed cell pellets were solubilized in 1 ml of 0.3% Triton X-100 at 37° C. for 1 hour before transfer to scintillation vials; 10 ml Ecoscint liquid scintillation fluid (National Diagnostics, Atlanta, Ga.) was added and radioactivity was quantitated in a Beckman LS6500 scintillation counter. […] Uptake was initiated by addition of 200 μL of cells at ≈2.5×10^7 cells/ml and 2 aliquots (100 μL) were removed to iced saline and processed at 5 min. Adventitious [^3H]MTX binding was determined at 0° C. by adding 200 μl of cells to 25 μl of PBS in a tube and cooling to 0° C. in ice for ≧5 min; following addition of 25 μl of [^3H]MTX to achieve a final concentration of 2 μM, 2 aliquots (100 μL) were immediately removed to iced saline and processed.
Analytical HPLC was performed on a Rainin Instruments HPLC system using the Dynamax controller and data capture module run on a Macintosh computer, such as described in McGuire J J, et al., J Biol Chem 1990; 265:14073-9, which is incorporated herein by reference in its entirety. C18 reversed-phase (0.4×25 cm; Rainin Microsorb, 5μ) HPLC was performed at 25° C. Detection was by absorbance at 280 and/or 254 nm. For MTX (tr, ≈31.6 min) and 7-OH-MTX (tr, ≈35.2 min) the gradient was from 4-13% ACN in 0.1 M Na-acetate, pH 5.5 over 41 min at 1 ml/min.

[5] = Comparative dissolution in 0.1N hydrochloric acid, USP dissolution apparatus with HPLC (FIG. 2, FIG. 3); format: physicochemical
Description: The percent dissolution for both compounds in 0.1N hydrochloric acid as a function of time was evaluated using a standard USP dissolution apparatus and high performance liquid chromatography (HPLC) test equipment. […] This is particularly relevant in the case of pharmaceutical compositions of the invention for oral delivery, wherein the composition will encounter an acidic environment, such as in the stomach. Greater solubility of the sodium salt compound indicates a greater amount of the active compound will be available for absorption.
Such improved solubility is illustrated in FIG. 3, wherein the comparative dissolution of an antifolate compound is given as the percent dissolution as a function of time. The antifolate compound was tested in the diacid form (denoted as “CH-1504 free acid”), in the sodium salt form (denoted as “CH-1504 sodium salt”), and as the sodium salt form in a pharmaceutical composition according to the invention including […]® 44/14 (denoted as “CH-1504 formulation”). Dissolution was tested using 0.1N hydrochloric acid. […] The inventive formulation achieved 90% dissolution by 30 minutes and 100% dissolution by 45 minutes. After 90 minutes, the salt alone and the diacid alone achieved only about 75% dissolution and about 50% dissolution, respectively.

[6] = Plasma concentration after oral L- or D-CH-1504 in non-fasted rats (Example 14); format: in vivo; conditions: individual animals; for Plasma conc. of D-CH-1504 / Plasma conc. of L-CH-1504: non-fasted female Lewis rats
Description: L- or D-CH-1504 was administered once orally to non-fasted female Lewis rats at a dose of 10 mg/kg (vehicle: 0.11% carboxymethylcellulose/0.45% TWEEN 80, formulation: suspension). About 750 μL of blood was collected from the jugular vein at 1 and 3 hours after administration. And then, whole of blood was collected from the femoral vein under diethyl ether anesthesia at 6 hours after administration. The collected blood was immediately centrifuged to obtain a plasma sample. L- and D-CH-1504 were extracted from the plasma by solid-phase extraction and were then determined with a LC/MS/MS.

[7] = system: CCRF-CEM cells; assay: Growth inhibition of CCRF-CEM cells by continuous (120 hr) drug exposure; format: cell-based, human; conditions: continuous 120 hr exposure
Description: The human T-lymphoblastic leukemia cell line CCRF-CEM (described in Foley G F, et al., Cancer 1965; 18:522-9) was cultured as described in McCloskey D E, et al., J Biol Chem 1991; 266:6181-7 (both of which are incorporated herein by reference in their entirety) and verified to be negative for Mycoplasma contamination (Mycoplasma Plus PCR primers, Stratagene, La Jolla, Calif.).

[8] = Hygroscopicity study of salts at 75% relative humidity for five days; format: physicochemical
Source text: Hygroscopicity and approximate solubility in aqueous and buffered solutions of ammonium, besylate, calcium, esylate, sulfate, HCl, mesylate, napsylate, potassium, disodium, and tosylate salts were compared. In the hygroscopicity study, the salts were subjected to 75% relative humidity for five days.

## C=C(CC(NC(=O)c1ccc(CCc2ccc3nc(N)nc(N)c3c2)cc1)C(=O)O)C(=O)O (racemic) [CH-1504, 2-{4-[2-(2,4-diamino-quinazolin-6-yl)-ethyl]-benzoylamino}-4-methylene-pentanedioic acid]
[1]; 1 mg
  AUC(0-inf): 1.52 ng·h/mL
  AUC(0-t): 1.25 ng·h/mL
  Cmax: 0.69 ng/mL
  Tmax: 2.26 h
  half-life: 0.99 h
[1]; 5 mg
  AUC(0-inf): 9.58 ng·h/mL
  AUC(0-t): 8.92 ng·h/mL
  Cmax: 2.65 ng/mL
  Tmax: 1.26 h
  half-life: 3.21 h
[1]; 7.5 mg
  AUC(0-inf): 7.47 ng·h/mL
  AUC(0-t): 6.63 ng·h/mL
  Cmax: 2.05 ng/mL
  Tmax: 1.5 h
  half-life: 2.71 h
[1]; 10 mg
  AUC(0-inf): 26 ng·h/mL
  AUC(0-t): 25.2 ng·h/mL
  Cmax: 6 ng/mL
  Tmax: 2.01 h
  half-life: 3.13 h
[1]; 15 mg
  AUC(0-inf): 25.9 ng·h/mL
  AUC(0-t): 25 ng·h/mL
  Cmax: 6.57 ng/mL
  Tmax: 2.25 h
  half-life: 3.2 h
[1]; 20 mg
  AUC(0-inf): 35.6 ng·h/mL
  AUC(0-t): 34.6 ng·h/mL
  Cmax: 7.83 ng/mL
  Tmax: 2.25 h
  half-life: 3.91 h
[2]
  percent dissolution: about 45%
[3]
  solubility (in words): poor solubility
[4]
  IC50: 1700 nM
[5]; FIG. 2, 45 minutes
  percent dissolution: 45%
[5]; FIG. 3, 15 minutes
  percent dissolution: approximately 35%
[5]; FIG. 3, 90 minutes
  percent dissolution: about 50%

## Nc1nc(N)c2nc(CNc3ccc(C(=O)N[C@@H](CCC(=O)O)C(=O)O)cc3)cnc2n1 [Aminopterin, reference compound]
[4]
  IC50: 1500 nM

## C=C(C[C@@H](NC(=O)c1ccc(CCc2ccc3nc(N)nc(N)c3c2)cc1)C(=O)O)C(=O)O [D-CH-1504]
[6]; 1 h after 10 mg/kg oral
  Plasma conc. of D-CH-1504: 31.5 ng/mL and 20.5 ng/mL and 11.0 ng/mL
  Plasma conc. of L-CH-1504: 0.895 ng/mL and BLQ (Below limit of quantification (<0.500 ng/mL)) (2×)
[6]; 3 h after 10 mg/kg oral
  Plasma conc. of D-CH-1504: 14.3 ng/mL and 9.44 ng/mL and 8.93 ng/mL
  Plasma conc. of L-CH-1504: BLQ (Below limit of quantification (<0.500 ng/mL))
[6]; 6 h after 10 mg/kg oral
  Plasma conc. of D-CH-1504: 8.34 ng/mL and 13.6 ng/mL and 8.01 ng/mL
  Plasma conc. of L-CH-1504: BLQ (Below limit of quantification (<0.500 ng/mL))
[7]
  EC50: 29 nM
[4]
  IC50: 7600 nM

## C=C(C[C@H](NC(=O)c1ccc(CCc2ccc3nc(N)nc(N)c3c2)cc1)C(=O)O)C(=O)O [L-CH-1504, (S)-2-{4-[2-(2,4-diamino-quinazolin-6-yl)-ethyl]-benzoylamino}-4-methylene-pentanedioic acid]
[6]; 1 h after 10 mg/kg oral
  Plasma conc. of D-CH-1504: BLQ (Below limit of quantification (<0.500 ng/mL))
  Plasma conc. of L-CH-1504: 139 ng/mL and 118 ng/mL
[6]; 3 h after 10 mg/kg oral
  Plasma conc. of D-CH-1504: BLQ (Below limit of quantification (<0.500 ng/mL))
  Plasma conc. of L-CH-1504: 36.8 ng/mL and 59.7 ng/mL
[6]; 6 h after 10 mg/kg oral
  Plasma conc. of D-CH-1504: BLQ (Below limit of quantification (<0.500 ng/mL))
  Plasma conc. of L-CH-1504: 22.2 ng/mL and 21.7 ng/mL
[6]; female, Lewis, rat, plasma, oral, 10 mg/kg, 1 h after 10 mg/kg oral, read-out: Plasma conc. of L-CH-1504
  concentration at 1 h: 144 ng/mL
[6]; female, Lewis, rat, plasma, oral, 10 mg/kg, 3 h after 10 mg/kg oral, read-out: Plasma conc. of L-CH-1504
  concentration at 3 h: 61.9 ng/mL
[6]; female, Lewis, rat, plasma, oral, 10 mg/kg, 6 h after 10 mg/kg oral, read-out: Plasma conc. of L-CH-1504
  concentration at 6 h: 22.7 ng/mL
[4]
  IC50: 1100 nM

## Cc1ccc(S(=O)(=O)O)cc1.Cn1cc(-c2ccc3nnc(C(F)(F)c4ccc5ncccc5c4)n3n2)cn1 [tosylate salt]
[8]
  hygroscopicity study outcome: Tacky or gummy solids or solids not exhibiting birefringence and extinction
